{"source": "patent US20210017607A1", "about": "“Methods of Predicting Responsiveness to Cancer Therapies” (The University of Chicago, priority 2019, published 2021)", "assay_type_in_all_cases": "cell-based, mouse", "key": {"PI3K": {"test_system": "PI3K", "assay": "In vitro target inhibition by western blotting (PI3K/AKT)"}, "B6-Myc (STING^hi) cells": {"test_system": "B6-Myc (STING^hi) cells", "assay": "p-γH2AX foci (DNA DSBs) by confocal microscopy", "settings": "36 hours; rucaparib 500 nM, buparlisib 1 μM", "experimental": "FIGS. 17A-17C. PARPi/PI3Ki combination induces intracellular DNA DSBs, and proportionate release of MV surface-associated DNA DSBs from B6-Myc (STING^hi) cancer cells, without affecting cellular viability. B6-Myc (STING^hi) cells were treated with indicated drugs singly or in combination for 36 hours. (17A) Cells were stained with anti-mouse specific p-γH2AX antibody and fluorescently labeled secondary antibody for determination of DNA DSBs, which were quantified by confocal microscopy. (17B) Protein extracts from cells in (17A) were analyzed for the indicated pharmacodynamic biomarkers by western blotting. […] Significance/p-values were calculated by one-way ANOVA.\nConfocal Microscopy. […] Staining for DNA DSBs was done with anti-mouse primary antibody specific for phospho-γH2AX (1:500 dilution, Cell Signaling Technology and secondary anti-rabbit IgG antibody conjugated to AF647 (1:1000-1:2000 dilution in 1×PBS, Thermo Fisher Scientific®). Anti-mouse specific β-actin conjugated to Phycoerythrin (PE, Thermo Fisher Scientific®) was used to stain the cytoskeleton. All staining procedures were done at 4° C. for 30 minutes. Cells were then washed 3 times with 1×PBS and imaged immediately. All images were collected using an Olympus Fluoview® 1000 using a 100× oil objective. Acquired images were analyzed by ImageJ software, developed at NIH."}, "[1]": {"test_system": "cGAS/STING signaling pathway components p-TBK1 and p-IRF3", "assay": "Western blotting of cGAS/STING pathway activation", "experimental": "FIGS. 15A-15E. Differential STING pathway activation within B6-Myc (STING^hi) cell lines and BMDMs relative to Myc-CAP (STING^lo) cells. (15A, 15B) The indicated cancer cell lines and BMDMs were treated with DMXAA (mouse STING agonist) for 1 and 24 hours, respectively, and protein extracts were interrogated for cGAS/STING pathway activation with the indicated antibodies by Western blotting. Supernatants were collected from for IFNβ1 ELISA following 36 hours of treatment with DMXAA (15C, 15D). (15E) Syngeneic Myc-CAP (STING^lo) tumors were processed into single cell suspensions and used for phycoerythrin-based sorting of CD45+ cellular fractions. Equal numbers of cells from these fractions were stimulated with DMXAA. Supernatants were collected at 36 hrs for detection of IFNB1 by ELISA; n=3 independent experiments; Significance/p-values were calculated by one-way Anova (for 15C & 15E) or paired t-test (for 15D); TAM=tumor associated macrophage; s.e.=short exposure; l.e.=long exposure.\nWestern Blot Analysis. RIPA and T-PER buffer (Thero Scientific®), supplemented with protease (Roche®) and HALT phosphatase inhibitor cocktail (Roche®), were used for preparation of lysates from in vitro cell lines and whole tumor chunks, respectively. For western blotting, the following antibodies were used from Cell Signaling Technology®: Polyclonal rabbit anti-mouse-phospho-γH2AX, phospho-AKT, total AKT, cGAS, STING, phospho-IRF3, total IRF3, phospho-TBK1, total TBK1, PTEN, β-actin and GAPDH. Monoclonal anti-mouse PAR antibody was obtained from Trevigen®. Images of scanned blots were processed using ADOBE Photoshop®."}}}
{"compound": "Nc1cc(C(F)(F)F)c(-c2cc(N3CCOCC3)nc(N3CCOCC3)n2)cn1", "note": "[buparlisib]", "values": [{"measurement": "concentration that achieved complete target inhibition in vitro", "setting": "PI3K; B6-Myc cells (FIG. 17B)", "result": 1, "unit": "µM"}, {"measurement": "target inhibitory concentration", "setting": "PI3K; BMDMs (FIG. 30A)", "result": 1}, {"measurement": "activation of the PI3K/AKT pathway within BMDMs", "setting": "PI3K; BMDMs co-cultured with R-MVs, 24 hours", "result": "inhibits activation of the PI3K/AKT pathway"}, {"measurement": "complete target inhibition concentration", "setting": "PI3K; Myc-CAP cells (FIG. 29B)", "result": 1, "unit": "µM"}]}
{"compound": "CNCc1ccc(-c2[nH]c3cc(F)cc4c3c2CCNC4=O)cc1", "note": "[rucaparib]", "values": [{"measurement": "DNA double-strand breaks (p-γH2AX foci)", "setting": "B6-Myc (STING^hi) cells", "result": "did not show a statistically significant increase"}]}
{"compound": "Cc1ccc2c(=O)c3cccc(CC(=O)O)c3oc2c1C", "note": "[DMXAA, 5,6-Dimethylxanthenone-4-acetic Acid]", "values": [{"measurement": "activation of p-TBK1 and p-IRF3", "setting": "[1]; B6-Myc (STING^hi) cells", "result": "activated"}, {"measurement": "activation of c-GAS/STING signaling pathway", "setting": "[1]; BMDMs", "result": "activated the c-GAS/STING signaling pathway"}, {"measurement": "activation of p-TBK1 and p-IRF3", "setting": "[1]; Myc-CAP (STING^lo) cells", "result": "not observed"}]}
